How the values were obtained:
Leishmania donovani [1] = experiment: Antileishmanial activity against Leishmania donovani MHOM/IN/AG/83 promastigotes after 48 hrs by MTT assay; format: functional, organism-based; conditions: MHOM/IN/AG/83, 48 h
Leishmania donovani [2] = experiment: Antileishmanial activity against Leishmania donovani MHOM/IN/AG/83 amastigotes infected in BALB/c mouse peritoneal macrophages after 42 hrs by Giemsa staining-based microscopic analysis; format: functional, organism-based; conditions: MHOM/IN/AG/83, 42 h
RAW264.7 = experiment: Cytotoxicity against mouse RAW264.7 cells after 48 hrs by MTT assay; format: cell-based; conditions: RAW264.7, 48 h
Peritoneal macrophage [3] = experiment: Cytotoxicity against BALB/c mouse peritoneal macrophages after 48 hrs by MTT assay; format: cell-based
[4] = Therapeutic index, ratio of IC50 for mouse RAW264.7 cells to IC50 for Leishmania donovani MHOM/IN/AG/83 promastigotes; format: toxicity; conditions: read-out: Ratio IC50
[5] = Therapeutic index, ratio of EC50 for BALB/c mouse peritoneal macrophages to EC50 for Leishmania donovani MHOM/IN/AG/83 amastigotes; format: toxicity; conditions: read-out: Ratio EC50
Peritoneal macrophage [6] = experiment: Induction of NO generation in Leishmania donovani MHOM/IN/AG/83 infected BALB/c mouse peritoneal macrophages assessed as nitrite levels after 48 hrs by Griess assay relative to untreated control; format: functional; further: test concentration or dose not given here

| Compound | IC50 (Leishmania donovani [1]) [µM] | EC50 (Leishmania donovani [2]) [µM] | IC50 (RAW264.7) [µM] | EC50 (Peritoneal macrophage [3]) [µM] | selectivity ratio [4] | selectivity ratio [5] | Activity (Peritoneal macrophage [6]) | Activity (Peritoneal macrophage [6]; record 2) [µM] |
| --- | --- | --- | --- | --- | --- | --- | --- | --- |
| C=CCc1ccc(OC(=O)[C@@H](N)Cc2c[nH]c3ccccc23)c(OC)c1 | 53 | 21.6 | 451 | 471 | 8.6 | 22.1 | Dose-dependent effect | 28.78 |
| C=CCc1ccc(OC(=O)CCCCCCCCC)c(OC)c1 | 67.5 | 33.1 | 373 | 404 | 5.66 | 12.4 | Dose-dependent effect | 27.31 |
| C=CCc1ccc(OCCCCC)c(OC)c1 | 90.8 | 83.4 | 178 | 164 | 1.96 | 1.97 | Dose-dependent effect | 12.95 |
| C=CCc1ccc(OCCCCCCC)c(OC)c1 | 61.3 | 41.1 | 198 | 197 | 3.28 | 4.88 | Dose-dependent effect | 22.43 |
| C=CCc1ccc(OC(=O)[C@@H]2CCCN2)c(OC)c1 | 97.4 | 72.9 | 278 | 326 | 2.87 | 4.49 | Dose-dependent effect | 21.87 |
| C=CCc1ccc(OC(=O)c2c[nH]c3ccccc23)c(OC)c1 | 60.5 | 25.3 | 485 | 496 | 8.11 | 19.7 | Dose-dependent effect | 26.24 |
| CCCCCCCCCCCCCCCCOP(=O)([O-])OCC[N+](C)(C)C [MILTEFOSINE] | 10.4 | 6.4 | 44.8 | 40.7 | 4.3 | 6.34 | Dose-dependent effect | 26.01 |
| C=CCc1ccc(OC(=O)CCCCCCCC)c(OC)c1 | 93.6 | 52.9 | 317 | 343 | 3.37 | 6.52 | Dose-dependent effect | 27.14 |
| C=CCc1ccc(OC(=O)CCCCC)c(OC)c1 | 162 | 101 | 517 | 477 | 3.21 | 4.76 | Dose-dependent effect | 18.29 |
| C=CCc1ccc(OCCCCCCCC)c(OC)c1 | 62.3 | 48.7 | 357 | 393 | 5.85 | 8.3 | Dose-dependent effect | 26.01 |
| C=CCc1ccc(OC(=O)CCCCCCCCCCCCCCC)c(OC)c1 | 43.3 | 8.54 | 374 | 357 | 8.56 | 42.2 | Dose-dependent effect | 39.42 |
| C=CCc1ccc(OCC)c(OC)c1 [ETHYLEUGENOL] | 71.7 | 162 | 102 | 90.5 | 1.43 | 0.55 | Dose-dependent effect | 10.43 |
| C=CCc1ccc(OCCCCCCCCCCCCCCCC)c(OC)c1 | 58.1 | 17.1 | 292 | 251 | 5.02 | 14.5 | Dose-dependent effect | 29.1 |
| C=CCc1ccc(OCCCCCCCCCCCC)c(OC)c1 | 52.5 | 26 | 299 | 292 | 5.76 | 11.4 | Dose-dependent effect | 28.12 |
| C=CCc1ccc(OCC=C(C)C)c(OC)c1 | 242 | 157 | 359 | 372 | 1.48 | 2.38 | Dose-dependent effect | 8.37 |
| C=CCc1ccc(OCCCCCCCCC)c(OC)c1 | 81.9 | 51.8 | 332 | 326 | 4.27 | 6.47 | Dose-dependent effect | 25.19 |
| C=CCc1ccc(OC)c(OC)c1 [METHYLEUGENOL] | 475 | 203 | 517 | 485 | 1.09 | 2.39 | Dose-dependent effect | 10.82 |
| C=CCc1ccc(OC(=O)CC)c(OC)c1 | 146 | 112 | 448 | 429 | 3.1 | 3.86 | Dose-dependent effect | 12.19 |
| C=CCc1ccc(OC(=O)Cc2ccccc2)c(OC)c1 | 33.4 | 9.28 | 391 | 385 | 11.8 | 41.8 | Dose-dependent effect | 36.45 |
| C=CCc1ccc(OC(=O)CCC)c(OC)c1 | 64.5 | 72.1 | 233 | 191 | 3.61 | 2.71 | Dose-dependent effect | 23.08 |
| C=CCc1ccc(OC(=O)c2ccc(F)cc2)c(OC)c1 | 61.3 | 78.4 | 364 | 400 | 5.93 | 5.24 | Dose-dependent effect | 14.56 |
| C=CCc1ccc(OC(=O)CCCCCC)c(OC)c1 | 103 | 59.6 | 512 | 491 | 4.95 | 8.3 | Dose-dependent effect | 25.84 |
| C=CCc1ccc(OCCCC)c(OC)c1 [N-BUTYLEUGENOL] | 309 | 147 | 329 | 345 | 1.07 | 2.35 | Dose-dependent effect | 14.23 |
| C=CCc1ccc(OCCCCCC)c(OC)c1 | 80.3 | 36.4 | 292 | 272 | 3.63 | 7.6 | Dose-dependent effect | 20.81 |
| C=CCc1ccc(OCCCCCCCCCC)c(OC)c1 | 49.9 | 29 | 412 | 272 | 8.61 | 9.67 | Dose-dependent effect | 26.17 |
